Here are results for six compounds from patent publication EP4741395A1, “NOVEL COMPOUND SENSITIVE TO NITROGEN MONOXIDE AND PHARMACEUTICAL COMPOSITION COMPRISING SAME” (Omniamed Co. Ltd, priority 2023, dated 2025).

A short description of test [1]: DAF-2 assay of NO scavenging activity (NO donor SNAP). It counts as biochemical. Particulars: DAF-2 10 µM, SNAP 100 µM, PBS, 3 hours, 37°C. As to the method:
NO scavenging activity of the pharmaceutical composition sensitive to nitrogen monoxide including the compound according to each of Examples 1 to 22, 29 to 31, and 33 to 35 was evaluated through a DAF-2 assay.
Specifically, a reagent stock solution was made using DMSO (dimethyl sulfoxide) in order to prepare 5 mM of DAF-2, 100 mM of SNAP and 5 mM of the compound synthesized in each of the Examples, and for the reaction, the solution was added to a PBS (phosphate buffered saline) solution so that DAF-2, SNAP and the compound had final concentrations of 10 µM, 100 µM and the concentration of Table 1, respectively, followed by a reaction for 3 hours in a 37°C incubator.

Test [2] has as its system splenocytes. Description: NO scavenging activity in Concanavalin A-treated splenocytes (Griess assay). It counts as cell-based, C57BL/6 mouse. The conditions noted are these: Mus musculus, Splenocyte, Concanavalin A 5 µg/mL, 72 hours, read-out: NO Scavenging Activity (%) (Mean±SD). The protocol:
(§1) A spleen was isolated from an 8-week-old C57BL/6 mouse, and splenocytes were isolated using a physical method.
(§2) The separated splenocytes were diluted to a concentration of 5×10^6 cells/mL in a RPMI 1640 medium including 10% FBS, 100 U/mL of penicillin and 100 µg/mL of streptomycin, and the diluted splenocytes were dispensed at 500 µL/well into a 48-well plate and 100 µL/well into a 96-well plate, and cultured for 72 hours in an incubator. The splenocytes were treated with Concanavalin A (5 µg/mL) when dispensed to induce an immune response, and herein, […] of the pharmaceutical composition including the compound according to each of the Examples was also added thereto. After 72 hours, the supernatant was collected, and the level of remaining NO was checked through a Griess assay, and calculated by the following Equation 4.
(The Griess reaction detects nitrite, a stable product of nitric oxide.)

The next test concerns Raw 264.7 cell line. In words: NO scavenging activity in LPS-treated immune cells (Griess reagent). It counts as cell-based. Particulars: Mus musculus, RAW264.7, Raw 264.7, LPS 500 ng/mL, 24 hours, read-out: NO Scavenging Activity (%) (Mean±SD). The protocol: Raw 264.7 cell line was seeded in a 48-well plate at a density of 8×10^4 cells/well, and cultured at 37°C in a DMEM medium including 10% FBS, 100 U/mL of penicillin and 100 µg/mL of streptomycin.
The medium was cultured overnight, and then replaced with a fresh medium including 10 µM of the pharmaceutical composition sensitive to nitrogen monoxide including the compound of each of Examples 1 to 30 and 500 ng/mL of LPS, and the fresh medium was cultured again for another 24 hours.
Lastly, in order to measure the amount of NO produced, the amount of NO2^- present in the cell culture medium was measured using a Griess reagent (sulfanilamide, N-1-naphthylethylenediamine dihydrochloride). Specifically, 100 µL of a Griess reagent was mixed with a mixture solution of 50 µL of the cell culture medium and 50 µL of PBS. The mixture solution was reacted for 10 minutes in a well plate, and absorbance thereof at 540 nm was measured.

Another test has as its system IFN-γ. Description: IFN-γ reduction activity in Concanavalin A-treated splenocytes (quantitative ELISA). The format is cell-based, C57BL/6 mouse. The conditions noted are these: Mus musculus, Splenocyte, Concanavalin A 5 µg/mL, 72 hours, read-out: IFN-γ Reduction Activity (%) (Mean±SD). The protocol:
as §1, §2
NO is one of important inflammatory mediators, and may increase the level of inflammatory cytokine. Concanavalin A (5 µg/mL), which induces an immune response in splenocytes, and the compound of each of Examples were treated in a concentration-dependent manner to check whether the level of IFN-γ, a representative inflammatory cytokine, was reduced. The supernatant was collected 72 hours after the treatment, and analyzed using a quantitative enzyme-linked immunosorbent assay (Quantitative-ELISA).
(In general: In an ELISA, binding on a coated surface is turned into a signal by an enzyme label.)

For test [3], the system named is splenocytes. In words: Inhibitory activity on cell proliferation in splenocytes (CCK-8 analysis). The conditions noted are these: Mus musculus, Splenocyte, Concanavalin A 5 µg/mL, 72 hours, read-out: Inhibitory Activity on Cell Proliferation (%) (Mean±SD). It counts as cell-based, C57BL/6 mouse.
Test [4] can be described thus: DAF-2 assay of NO scavenging activity without and with H2O2 (ROS). It counts as biochemical. The conditions noted are these: SNAP 100 µM, DAF-2 10 µM, 3 hours, 37°C; for NO Scavenging Activity (%) (Mean±SD) With H2O2: H2O2 1 mM. As to the method:
The pharmaceutical composition sensitive to nitrogen monoxide including the compound according to each of Examples 23 to 28 and 32 may have scavenging activity for reactive oxygen species (ROS). NO scavenging activity of the pharmaceutical composition was evaluated through a DAF-2 assay.
Specifically, to a 100 µM solution of SNAP, the compound synthesized in each of the Examples was added at a concentration of the following Table 2, and reacted. Then 10 µM of DAF-2 was added thereto, followed by a reaction for 3 hours in a 37°C incubator.
Additionally, a stock solution of H2O2 (10 M) was added to the reaction solution so that SNAP and H2O2 had final concentrations of 100 µM and 1 mM, respectively. Then, the compound synthesized in each of the Examples was added thereto at a concentration of the following Table 11, followed by a reaction in the same manner, and NO scavenging activity was calculated by Equation 1.

Another test concerns the target JAK 1 (Homo sapiens, UniProt P23458). In words: JAK Human TK kinase enzymatic radiometric assay (Eurofins), JAK 1. Particulars: value close to 100 indicates low JAK activity of the compound.

Chain of JAK 1 (P23458 whole entry): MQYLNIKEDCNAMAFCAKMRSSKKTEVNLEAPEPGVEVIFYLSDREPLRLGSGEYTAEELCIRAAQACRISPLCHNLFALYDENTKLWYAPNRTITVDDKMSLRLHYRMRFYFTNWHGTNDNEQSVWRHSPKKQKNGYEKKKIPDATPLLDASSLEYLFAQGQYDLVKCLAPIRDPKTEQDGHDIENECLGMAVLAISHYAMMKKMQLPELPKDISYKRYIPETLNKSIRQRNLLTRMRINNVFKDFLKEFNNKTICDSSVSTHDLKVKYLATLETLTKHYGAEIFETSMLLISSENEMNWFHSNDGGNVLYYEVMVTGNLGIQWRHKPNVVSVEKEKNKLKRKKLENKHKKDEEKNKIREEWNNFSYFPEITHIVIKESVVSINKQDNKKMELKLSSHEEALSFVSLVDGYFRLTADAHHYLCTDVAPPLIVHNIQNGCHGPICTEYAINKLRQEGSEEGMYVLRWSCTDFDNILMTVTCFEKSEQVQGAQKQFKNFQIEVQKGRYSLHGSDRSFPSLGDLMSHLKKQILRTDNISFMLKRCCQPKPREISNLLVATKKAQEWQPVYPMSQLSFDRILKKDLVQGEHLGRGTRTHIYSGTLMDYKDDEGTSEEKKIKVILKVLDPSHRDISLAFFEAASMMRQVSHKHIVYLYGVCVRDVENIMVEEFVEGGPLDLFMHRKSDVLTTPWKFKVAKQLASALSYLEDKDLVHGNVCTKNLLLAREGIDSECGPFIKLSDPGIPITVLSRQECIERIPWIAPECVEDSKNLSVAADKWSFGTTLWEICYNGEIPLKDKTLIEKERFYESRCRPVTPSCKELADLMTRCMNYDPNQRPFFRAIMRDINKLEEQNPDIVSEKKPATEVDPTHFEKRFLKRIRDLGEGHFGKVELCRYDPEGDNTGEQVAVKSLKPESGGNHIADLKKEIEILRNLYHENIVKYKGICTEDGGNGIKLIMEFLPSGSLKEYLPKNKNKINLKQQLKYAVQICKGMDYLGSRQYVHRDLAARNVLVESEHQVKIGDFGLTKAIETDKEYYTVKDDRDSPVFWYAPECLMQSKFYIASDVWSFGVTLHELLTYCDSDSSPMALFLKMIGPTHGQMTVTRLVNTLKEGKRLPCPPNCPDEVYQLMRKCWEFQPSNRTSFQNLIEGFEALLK
Source text for JAK 1: For the compounds of the Examples, JAK activity of each of the compounds was verified using the JAK Human TK Kinase Enzymatic Radiometric Kinase Profiler Assay service provided by Eurofins Scientific.
The activity was verified after inducing a reaction at the JAK 1, 2 and 3 active sites using radioactively labeled ATP.

As to `CC[C@@H]1CN(C(=O)NCC(F)(F)F)C[C@@H]1c1cnc2cnc3c(ccn3C(=O)Nc3ccccc3N)n12` [Example 29, N-(2-aminophenyl)-8-((3R,4S)-4-ethyl-1-((2,2,2-trifluoroethyl)carbamoyl)pyrrolidin-3-yl)-3H-imidazo[1,2-a]pyrrolo[2,3-e]pyrazine-3-carboxamide], the entries for the “NO Scavenging Activity (%) (Mean±SD)” value in test [1] (compound 1 µM), in test [1] (compound 5 µM) and in test [1] (compound 10 µM) were 3.68± 7.63%, 1.71± 4.16% and 25.18 ±3.14%, respectively. For the same compound, the values for the activity at 10 µM in the test with splenocytes [2], in the test on Raw 264.7 cell line and with IFN-γ were 88.5 ± 0.47%, 90.1 ± 0.74% and 100%, respectively. The inhibition at 10 µM in the test on splenocytes [3] was determined as 78 ± 6.9%.

On to `C[C@@H]1CCN(C(=O)CC#N)C[C@@H]1N(C)c1ncnc2c1ccn2C(=O)N(C)CCN(C)C(=O)Nc1cc2c(cc1NC(=O)OCc1ccc(B(O)O)cc1)n(C)c(=O)n2C` [Example 24, (4-((((6-(3-(2-(4-(((3R,4R)-1-(2-cyanoacetyl)-4-methylpiperidin-3-yl)(methyl)amino)-N-methyl-7H-pyrrolo[2,3-d]pyrimidine-7-carboxamido)ethyl)-3-methylureido)-1,3-dimethyl-2-oxo-2,3-dihydro-1H-benzo[d]imidazol-5-yl)carbamoyl)oxy)methyl)phenyl)boronic acid], for which the “NO Scavenging Activity (%) (Mean±SD) Without H2O2” value in test [4] (compound 1 µM) is reported as 16.43 ±4.86%; in test [4] (compound 5 µM), 27.84 ±7.68%; in test [4] (compound 10 µM), 40.54 ±3.96%. The “NO Scavenging Activity (%) (Mean±SD) With H2O2” value in test [4] (compound 1 µM) was 34.66 ±3.80%; in test [4] (compound 5 µM), 43.58 ±6.00%; in test [4] (compound 10 µM), 53.52 ±3.09%. For the same compound, the results for the activity at 10 µM in the test with splenocytes [2], in the test on Raw 264.7 cell line and in the test with IFN-γ were 78.3 ± 0.5%, 9.8 ± 0.64% and 95.5 ± 0.15%, respectively. Also, the inhibition at 10 µM in the test on splenocytes [3] is 67.2 ± 4.67%.

For `Cc1ccc(NC(=O)OCc2ccc(B3OC(C)(C)C(C)(C)O3)cc2)c(NC(=O)n2ccc3c(N(C)[C@H]4CN(C(=O)CC#N)CC[C@H]4C)ncnc32)c1` [Example 26, 4-(4,4,5,5-tetramethyl-1,3,2-dioxaborolan-2-yl)benzyl (2-(4-(((3R,4R)-1-(2-cyanoacetyl)-4-methylpiperidin-3-yl) (methyl)amino)-7H-pyrrolo[2,3-d]pyrimidine-7-carboxamido)-4-methylphenyl)carbamate], in test [4] (compound 10 µM), the “NO Scavenging Activity (%) (Mean±SD) Without H2O2” value was 42.98 ±2.51%. In addition, in test [4] (compound 10 µM), the “NO Scavenging Activity (%) (Mean±SD) With H2O2” value came to 92.96 ±0.04%. The activity at 10 µM in the test with splenocytes [2] turned out to be 100%; in the test with Raw 264.7 cell line it was 73.7 ± 0.33%; with IFN-γ it was 97.4 ± 0.1%. The inhibition at 10 µM with splenocytes [3] amounted to 75.6 ± 0.96%.

For the compound `C[C@@H]1CCN(C(=O)CC#N)C[C@@H]1N(C)c1ncnc2c1ccn2C(=O)Nc1cc2c(cc1NC(=O)OCc1ccc(B3OC(C)(C)C(C)(C)O3)cc1)n(C)c(=O)n2C` [Example 28, 4-(4,4,5,5-tetramethyl-1,3,2-dioxaborolan-2-yl)benzyl (6-(4-(((3R,4R)-1-(2-cyanoacetyl)-4-methylpiperidin-3-yl) (methyl)amino)-7H-pyrrolo[2,3-d]pyrimidine-7-carboxamido)-1,3-dimethyl-2-oxo-2,3-dihydro-1H-benzo[d]imidazol-5-yl)carbamate], the “NO Scavenging Activity (%) (Mean±SD) Without H2O2” value amounted to 3.73± 0.57% in test [4] (compound 1 µM), 13.25 ±0.69% in test [4] (compound 5 µM) and 14.18 ±0.62% in test [4] (compound 10 µM). Moreover, the “NO Scavenging Activity (%) (Mean±SD) With H2O2” value in test [4] (compound 1 µM) was found to be 76.23 ±0.94%; in test [4] (compound 5 µM), 98.01 ±0.04%; in test [4] (compound 10 µM), 98.34 ±0.05%. The activity at 10 µM in the test on splenocytes [2] was found to be 92 ± 0.56%; in the test with Raw 264.7 cell line, 49.8 ± 0.43%; in the test with IFN-γ, 100%. Moreover, the inhibition at 10 µM in the test on splenocytes [3] amounted to 80.7 ± 7.12%.

In the case of `C[C@@H]1CCN(C(=O)CC#N)C[C@@H]1N(C)c1ncnc2c1ccn2C(=O)N(C)CCN(C)C(=O)Nc1cc(N(C)C)ccc1NC(=O)OCc1ccc(B(O)O)cc1` [Example 23, (4-((((2-(3-(2-(4-(((3R,4R)-1-(2-cyanoacetyl)-4-methylpiperidin-3-yl)(methyl)amino)-N-methyl-7H-pyrrolo[2,3-d]pyrimidine-7-carboxamido)ethyl)-3-methylureido)-4-(dimethylamino)phenyl)carbamoyl)oxy)methyl)phenyl)boronic acid], the “NO Scavenging Activity (%) (Mean±SD) Without H2O2” value amounted to 21.08 ±0.77% in test [4] (compound 1 µM), 39.33 ±8.29% in test [4] (compound 5 µM) and 52.96 ±6.23% in test [4] (compound 10 µM). The “NO Scavenging Activity (%) (Mean±SD) With H2O2” value is reported as 25.76 ±6.11% in test [4] (compound 1 µM), 64.84 ±1.94% in test [4] (compound 5 µM) and 83.96 ±0.29% in test [4] (compound 10 µM). The “JAK 1 Activity” value is given as 94 on JAK 1 (0.1 nM), 90 on JAK 1 (1 nM), 100 on JAK 1 (10 nM) and 83 on JAK 1 (100 nM). Also, the activity at 10 µM in the test on splenocytes [2] stood at 19.5 ± 0.65%; with Raw 264.7 cell line it was 16.8 ± 0.7%; with IFN-γ, 68 ± 0.45%. Moreover, the inhibition at 10 µM in the test with splenocytes [3] turned out to be 11.8 ± 2.08%.

As for `COc1ccc(NC(=O)OCc2ccc(B3OC(C)(C)C(C)(C)O3)cc2)c(NC(=O)n2ccc3c(N(C)[C@H]4CN(C(=O)CC#N)CC[C@H]4C)ncnc32)c1` [Example 27, 4-(4,4,5,5-tetramethyl-1,3,2-dioxaborolan-2-yl)benzyl (2-(4-(((3R,4R)-1-(2-cyanoacetyl)-4-methylpiperidin-3-yl) (methyl)amino)-7H-pyrrolo[2,3-d]pyrimidine-7-carboxamido)-4-methoxyphenyl)carbamate], the “NO Scavenging Activity (%) (Mean±SD) Without H2O2” value in test [4] (compound 10 µM) was determined as 59.31 ±0.55%. In addition, in test [4] (compound 10 µM), the “NO Scavenging Activity (%) (Mean±SD) With H2O2” value was found to be 97.09 ±0.01%. Also, the activity at 10 µM with splenocytes [2] came to 77.6 ± 1.24%; in the test with Raw 264.7 cell line it was 59.3 ± 0.06%; in the test with IFN-γ it was 74.6 ± 2.41%. For the same compound, in the test on splenocytes [3], the inhibition at 10 µM stood at 81.1 ± 9.03%.
